Molecules are shown by their SMILES.

The target in the assay is T1, TAK1-TAB1 fusion protein (Homo sapiens, UniProt O43318).
T1 construct: purchased Upstate 14-600
T1 sequence (O43318 with tags, fused parts or gaps limits assumed): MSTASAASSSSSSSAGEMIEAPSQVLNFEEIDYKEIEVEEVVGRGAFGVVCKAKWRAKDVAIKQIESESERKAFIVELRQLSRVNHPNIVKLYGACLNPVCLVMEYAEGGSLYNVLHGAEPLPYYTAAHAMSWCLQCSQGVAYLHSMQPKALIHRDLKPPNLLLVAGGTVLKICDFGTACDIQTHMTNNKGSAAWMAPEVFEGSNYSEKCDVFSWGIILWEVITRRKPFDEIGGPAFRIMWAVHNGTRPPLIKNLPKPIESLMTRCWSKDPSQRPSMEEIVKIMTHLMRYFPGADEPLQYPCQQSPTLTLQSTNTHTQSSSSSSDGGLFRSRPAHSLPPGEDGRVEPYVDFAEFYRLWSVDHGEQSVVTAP
The experiment in a line: In vitro TAK1 kinase assay. It counts as biochemical. The conditions noted are these: casein substrate, [33P]-γ-ATP, 90 minutes at 30° C., semi-quantitative score, read-out: POTENCY TAK1 (MAP3K7). The gist of the method: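 Radiometric kinase assay with TAK1-TAB1 fusion protein (0.5 mU), casein substrate, ATP plus [^33P]-γ-ATP in MOPS pH 7.0/EDTA buffer, compounds in 3-fold dilutions. 90 min at 30 °C, stopped with phosphoric acid; casein-incorporated label captured on filter plates and counted by scintillation.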
As to `O=C(NCc1cccnc1)c1ccc(Nc2ccc(-c3cn[nH]c3)n3ncnc23)cc1` [Example 37, 4-{[5-(1H-pyrazol-4-yl)[1,2,4]triazolo[1,5-a]pyridin-8-yl]amino}-N-(pyridin-3-ylmethyl)benzamide], the IC50 was 0.501 to 1 µM.

As to `CN1CCN(c2ccc(Nc3ccc(-c4cc[nH]c(=O)c4)n4ncnc34)cc2)CC1` [Example 4, 4-{8-[4-(4-Methyl-piperazin-1-yl)-phenylamino]-[1,2,4]triazolo[1,5-a]pyridin-5-yl}-1H-pyridin-2-one], the IC50 was in the range of 0.501 to 1 µM.

On to `CN1CCN(c2ccc(Nc3ccc(-c4cn[nH]c4)n4ncnc34)cc2)CC1` [Example 36, N-[4-(4-methylpiperazin-1-yl)phenyl]-5-(1H-pyrazol-4-yl)[1,2,4]triazolo[1,5-a]pyridin-8-amine], for which the IC50 was less than 0.5 µM.

Regarding `O=C(NCc1cccnc1)c1ccc(Nc2ccc(-c3cn[nH]c3)n3ncnc23)cc1` [Example 3, 4-[5-(1H-Pyrazol-4-yl)-[1,2,4]triazolo[1,5-a]pyridin-8-ylamino]-N-pyridin-3-ylmethyl-benzamide], the IC50 is 0.501 to 1 µM.

For the molecule `CN1CCN(c2ccc(Nc3ccc(-c4cc[nH]c(=O)c4)n4ncnc34)cc2)CC1` [Example 40, 4-(8-{[4-(4-methylpiperazin-1-yl)phenyl]amino}[1,2,4]triazolo[1,5-a]pyridin-5-yl)pyridin-2(1H)-one], the IC50 is less than 0.5 µM.

`NC(=O)c1ccc(-c2ccc(Nc3ccc(N4CCOCC4)cc3)c3ncnn23)cc1` [Example 1, 4-[8-(4-Morpholin-4-yl-phenylamino)-[1,2,4]triazolo[1,5-a]pyridin-5-yl]-benzamide]: the IC50 is greater than 10 µM.

Consider `CN1CCN(c2ccc(Nc3ccc(-c4cn[nH]c4)n4ncnc34)cc2)CC1` [Example 2, [4-(4-Methyl-piperazin-1-yl)-phenyl]-[5-(1H-pyrazol-4-yl)-[1,2,4]triazolo[1,5-a]pyridin-8-yl]-amine], for which the IC50 was in the range of 0.501 to 1 µM.

With `O=C(NCc1cccnc1)c1ccc(Nc2ccc(-c3cc[nH]c(=O)c3)n3ncnc23)cc1` [Example 41, 4-{[5-(2-oxo-1,2-dihydropyridin-4-yl)[1,2,4]triazolo[1,5-a]pyridin-8-yl]amino}-N-(pyridin-3-ylmethyl)benzamide], the IC50 fell in the range of 1 to 5 µM.

As to `Cc1[nH]ncc1-c1ccc(Nc2ccc(N3CCOCC3)cc2)c2ncnn12` [Example 8, [5-(5-Methyl-1H-pyrazol-4-yl)-[1,2,4]triazolo[1,5-a]pyridin-8-yl]-(4-morpholin-4-yl-phenyl)-amine], the IC50 was 1 to 5 µM.

Regarding `O=C(NCc1cccnc1)c1ccc(Nc2ccc(-c3cc[nH]c(=O)c3)n3ncnc23)cc1` [Example 5, 4-[5-(2-oxo-1,2-dihydro-pyridin-4-yl)-[1,2,4]triazolo[1,5-a]pyridin-8-ylamino]-N-pyridin-3-ylmethyl-benzamide], the IC50 fell in the range of 0.501 to 1 µM.

`CN1CCN(c2ccc(Nc3ccc(-c4ccc(C(N)=O)c(F)c4)n4ncnc34)cc2)CC1` [Example 42, 2-fluoro-4-(8-{[4-(4-methylpiperazin-1-yl)phenyl]amino}[1,2,4]triazolo[1,5-a]pyridin-5-yl)benzamide]: the IC50 fell in the range of 1 to 5 µM.

For `c1nc2c(Nc3ccc(N4CCOCC4)cc3)ccc(-c3cn[nH]c3)n2n1` [Example 7, (4-Morpholin-4-yl-phenyl)-[5-(1H-pyrazol-4-yl)-[1,2,4]triazolo[1,5-a]pyridin-8-yl]-amine], the IC50 fell in the range of 0.501 to 1 µM.

With `Cc1[nH]ncc1-c1ccc(Nc2ccc(N3CCOCC3)cc2)c2ncnn12` [Example 39, 5-(5-methyl-1H-pyrazol-4-yl)-N-(4-morpholin-4-ylphenyl)[1,2,4]triazolo[1,5-a]pyridin-8-amine], the IC50 was in the range of 1 to 5 µM.

For the origin of these results see patent US7977352B2, “Triazolopyridine compounds useful for the treatment of degenerative and inflammatory diseases” (Galapagos NV, priority 2006, dated 2011).
